# How the values were obtained:
# rodent = conditions: in vivo; cited from earlier work
# liver = conditions: in vivo; cited from earlier work
# [1] = test system: mRNA expressed from the genes (A) to (D) in rat liver; assay: Behavior of genes (mRNA expression level, oligo-DNA microarray) in rat liver after 28-day oral administration; type: in vivo; conditions: for Behavior of gene caused by administration of chemical substance, Gene No. 4846 / Behavior of gene caused by administration of chemical substance, Gene No. 2026 / Behavior of gene caused by administration of chemical substance, Gene No. 4218 / Behavior of gene caused by administration of chemical substance, Gene No. 6182 / Behavior of gene caused by administration of chemical substance, Gene No. 5600: gene group (A); for Behavior of gene caused by administration of chemical substance, Gene No. 4846: Unigene No. Rn.144554; for Behavior of gene caused by administration of chemical substance, Gene No. 2026 / Behavior of gene caused by administration of chemical substance, Gene No. 4218: Unigene No. Rn.167075; for Behavior of gene caused by administration of chemical substance, Gene No. 6182: Unigene No. Rn.5834; for Behavior of gene caused by administration of chemical substance, Gene No. 5600: Unigene No. Rn.9836; for Behavior of gene caused by administration of chemical substance, Gene No. 1494 / Behavior of gene caused by administration of chemical substance, Gene No. 2045 / Behavior of gene caused by administration of chemical substance, Gene No. 2203: gene group (B); for Behavior of gene caused by administration of chemical substance, Gene No. 1494: Unigene No. Rn.1430; for Behavior of gene caused by administration of chemical substance, Gene No. 2045: Unigene No. Rn.19329; for Behavior of gene caused by administration of chemical substance, Gene No. 2203: Unigene No. Rn.21240; for Behavior of gene caused by administration of chemical substance, Gene No. 533 / Behavior of gene caused by administration of chemical substance, Gene No. 725 / Behavior of gene caused by administration of chemical substance, Gene No. 1163 / Behavior of gene caused by administration of chemical substance, Gene No. 4973 / Behavior of gene caused by administration of chemical substance, Gene No. 4095 / Behavior of gene caused by administration of chemical substance, Gene No. 1334 / Behavior of gene caused by administration of chemical substance, Gene No. 6620 / Behavior of gene caused by administration of chemical substance, Gene No. 6303 / Behavior of gene caused by administration of chemical substance, Gene No. 5878 / Behavior of gene caused by administration of chemical substance, Gene No. 1131 / Behavior of gene caused by administration of chemical substance, Gene No. 1562 / Behavior of gene caused by administration of chemical substance, Gene No. 1741 / Behavior of gene caused by administration of chemical substance, Gene No. 893 / Behavior of gene caused by administration of chemical substance, Gene No. 6026 / Behavior of gene caused by administration of chemical substance, Gene No. 154 / Behavior of gene caused by administration of chemical substance, Gene No. 1993 / Behavior of gene caused by administration of chemical substance, Gene No. 813 / Behavior of gene caused by administration of chemical substance, Gene No. 2494 / Behavior of gene caused by administration of chemical substance, Gene No. 2546 / Behavior of gene caused by administration of chemical substance, Gene No. 3776 / Behavior of gene caused by administration of chemical substance, Gene No. 3929 / Behavior of gene caused by administration of chemical substance, Gene No. 1119 / Behavior of gene caused by administration of chemical substance, Gene No. 6742 / Behavior of gene caused by administration of chemical substance, Gene No. 5634: gene group (C); for Behavior of gene caused by administration of chemical substance, Gene No. 533: Unigene No. Rn.106184; for Behavior of gene caused by administration of chemical substance, Gene No. 725: Unigene No. Rn.108075; for Behavior of gene caused by administration of chemical substance, Gene No. 1163: Unigene No. Rn.11766; for Behavior of gene caused by administration of chemical substance, Gene No. 4973: Unigene No. Rn.118529; for Behavior of gene caused by administration of chemical substance, Gene No. 4095: Unigene No. Rn.119024; for Behavior of gene caused by administration of chemical substance, Gene No. 1334 / Behavior of gene caused by administration of chemical substance, Gene No. 6620: Unigene No. Rn.120914; for Behavior of gene caused by administration of chemical substance, Gene No. 6303: Unigene No. Rn.123063; for Behavior of gene caused by administration of chemical substance, Gene No. 5878: Unigene No. Rn.143213; for Behavior of gene caused by administration of chemical substance, Gene No. 1131: Unigene No. Rn.144946; for Behavior of gene caused by administration of chemical substance, Gene No. 1562: Unigene No. Rn.14744; for Behavior of gene caused by administration of chemical substance, Gene No. 1741: Unigene No. Rn.1647; for Behavior of gene caused by administration of chemical substance, Gene No. 893: Unigene No. Rn.164817; for Behavior of gene caused by administration of chemical substance, Gene No. 6026: Unigene No. Rn.167685; for Behavior of gene caused by administration of chemical substance, Gene No. 154: Unigene No. Rn.185941; for Behavior of gene caused by administration of chemical substance, Gene No. 1993: Unigene No. Rn.18728; for Behavior of gene caused by administration of chemical substance, Gene No. 813: Unigene No. Rn.201760; for Behavior of gene caused by administration of chemical substance, Gene No. 2494: Unigene No. Rn.23969; for Behavior of gene caused by administration of chemical substance, Gene No. 2546: Unigene No. Rn.24561; for Behavior of gene caused by administration of chemical substance, Gene No. 3776: Unigene No. Rn.43232; for Behavior of gene caused by administration of chemical substance, Gene No. 3929: Unigene No. Rn.4620; for Behavior of gene caused by administration of chemical substance, Gene No. 1119: Unigene No. Rn.9757; for Behavior of gene caused by administration of chemical substance, Gene No. 6742: Unigene No. Rn.9779; for Behavior of gene caused by administration of chemical substance, Gene No. 5634: Unigene No. Rn.9862; for Behavior of gene caused by administration of chemical substance, Gene No. 5726: gene group (D), Unigene No. Rn.9939
# Summary of the method: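 Groups of four male F344 SPF rats aged 5 weeks are gavaged once a day for 28 days with test chemical in solvent or with solvent alone at equal volume. Total RNA comes from liver taken on day 28. Fold change of 1.5 or 1/1.5 versus control, directionally consistent, defines significance.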
compound,measurement,setting,value
"O=C(O)C1C(C(=O)O)C2(Cl)C(Cl)=C(Cl)C1(Cl)C2(Cl)Cl (stereo not shown) [TS078, Chlorendic acid]",Carcinogenicity,rodent,C+
same,Liver carcinogenicity,liver,Cr+
same,"Behavior of gene caused by administration of chemical substance, Gene No. 4846",[1]; mRNA vs vehicle control group,−
same,"Behavior of gene caused by administration of chemical substance, Gene No. 2026",[1]; mRNA vs vehicle control group,+
same,"Behavior of gene caused by administration of chemical substance, Gene No. 4218",[1]; mRNA vs vehicle control group,−
same,"Behavior of gene caused by administration of chemical substance, Gene No. 6182",[1]; mRNA vs vehicle control group,−
same,"Behavior of gene caused by administration of chemical substance, Gene No. 5600",[1]; mRNA vs vehicle control group,−
same,"Behavior of gene caused by administration of chemical substance, Gene No. 1494",[1]; mRNA vs vehicle control group,+
same,"Behavior of gene caused by administration of chemical substance, Gene No. 2045",[1]; mRNA vs vehicle control group,+
same,"Behavior of gene caused by administration of chemical substance, Gene No. 2203",[1]; mRNA vs vehicle control group,+
same,"Behavior of gene caused by administration of chemical substance, Gene No. 533",[1]; mRNA vs vehicle control group,−
same,"Behavior of gene caused by administration of chemical substance, Gene No. 725",[1]; mRNA vs vehicle control group,−
same,"Behavior of gene caused by administration of chemical substance, Gene No. 1163",[1]; mRNA vs vehicle control group,+
same,"Behavior of gene caused by administration of chemical substance, Gene No. 4973",[1]; mRNA vs vehicle control group,+
same,"Behavior of gene caused by administration of chemical substance, Gene No. 4095",[1]; mRNA vs vehicle control group,−
same,"Behavior of gene caused by administration of chemical substance, Gene No. 1334",[1]; mRNA vs vehicle control group,−
same,"Behavior of gene caused by administration of chemical substance, Gene No. 6620",[1]; mRNA vs vehicle control group,−
same,"Behavior of gene caused by administration of chemical substance, Gene No. 6303",[1]; mRNA vs vehicle control group,−
same,"Behavior of gene caused by administration of chemical substance, Gene No. 5878",[1]; mRNA vs vehicle control group,−
same,"Behavior of gene caused by administration of chemical substance, Gene No. 1131",[1]; mRNA vs vehicle control group,−
same,"Behavior of gene caused by administration of chemical substance, Gene No. 1562",[1]; mRNA vs vehicle control group,−
same,"Behavior of gene caused by administration of chemical substance, Gene No. 1741",[1]; mRNA vs vehicle control group,−
same,"Behavior of gene caused by administration of chemical substance, Gene No. 893",[1]; mRNA vs vehicle control group,−
same,"Behavior of gene caused by administration of chemical substance, Gene No. 6026",[1]; mRNA vs vehicle control group,−
same,"Behavior of gene caused by administration of chemical substance, Gene No. 154",[1]; mRNA vs vehicle control group,−
same,"Behavior of gene caused by administration of chemical substance, Gene No. 1993",[1]; mRNA vs vehicle control group,−
same,"Behavior of gene caused by administration of chemical substance, Gene No. 813",[1]; mRNA vs vehicle control group,−
same,"Behavior of gene caused by administration of chemical substance, Gene No. 2494",[1]; mRNA vs vehicle control group,−
same,"Behavior of gene caused by administration of chemical substance, Gene No. 2546",[1]; mRNA vs vehicle control group,−
same,"Behavior of gene caused by administration of chemical substance, Gene No. 3776",[1]; mRNA vs vehicle control group,−
same,"Behavior of gene caused by administration of chemical substance, Gene No. 3929",[1]; mRNA vs vehicle control group,−
same,"Behavior of gene caused by administration of chemical substance, Gene No. 1119",[1]; mRNA vs vehicle control group,−
same,"Behavior of gene caused by administration of chemical substance, Gene No. 6742",[1]; mRNA vs vehicle control group,−
same,"Behavior of gene caused by administration of chemical substance, Gene No. 5634",[1]; mRNA vs vehicle control group,+
same,"Behavior of gene caused by administration of chemical substance, Gene No. 5726",[1]; mRNA vs vehicle control group,−
"CC(O)CCl (stereo not shown) [TS079, 1-Chloro-2-propanol]",Carcinogenicity,rodent,C−
same,Liver carcinogenicity,liver,Cr−
same,"Behavior of gene caused by administration of chemical substance, Gene No. 4846",[1],−
same,"Behavior of gene caused by administration of chemical substance, Gene No. 2026",[1],−
same,"Behavior of gene caused by administration of chemical substance, Gene No. 4218",[1],−
same,"Behavior of gene caused by administration of chemical substance, Gene No. 6182",[1],+
same,"Behavior of gene caused by administration of chemical substance, Gene No. 5600",[1],−
same,"Behavior of gene caused by administration of chemical substance, Gene No. 1494",[1],−
same,"Behavior of gene caused by administration of chemical substance, Gene No. 2045",[1],+
same,"Behavior of gene caused by administration of chemical substance, Gene No. 2203",[1],+
same,"Behavior of gene caused by administration of chemical substance, Gene No. 533",[1],−
same,"Behavior of gene caused by administration of chemical substance, Gene No. 725",[1],−
same,"Behavior of gene caused by administration of chemical substance, Gene No. 1163",[1],−
same,"Behavior of gene caused by administration of chemical substance, Gene No. 4973",[1],−
same,"Behavior of gene caused by administration of chemical substance, Gene No. 4095",[1],−
same,"Behavior of gene caused by administration of chemical substance, Gene No. 1334",[1],−
same,"Behavior of gene caused by administration of chemical substance, Gene No. 6620",[1],−
same,"Behavior of gene caused by administration of chemical substance, Gene No. 6303",[1],−
same,"Behavior of gene caused by administration of chemical substance, Gene No. 5878",[1],−
same,"Behavior of gene caused by administration of chemical substance, Gene No. 1131",[1],−
same,"Behavior of gene caused by administration of chemical substance, Gene No. 1562",[1],−
same,"Behavior of gene caused by administration of chemical substance, Gene No. 1741",[1],−
same,"Behavior of gene caused by administration of chemical substance, Gene No. 893",[1],−
same,"Behavior of gene caused by administration of chemical substance, Gene No. 6026",[1],−
same,"Behavior of gene caused by administration of chemical substance, Gene No. 154",[1],−
same,"Behavior of gene caused by administration of chemical substance, Gene No. 1993",[1],−
same,"Behavior of gene caused by administration of chemical substance, Gene No. 813",[1],−
same,"Behavior of gene caused by administration of chemical substance, Gene No. 2494",[1],−
same,"Behavior of gene caused by administration of chemical substance, Gene No. 2546",[1],−
same,"Behavior of gene caused by administration of chemical substance, Gene No. 3776",[1],−
same,"Behavior of gene caused by administration of chemical substance, Gene No. 3929",[1],−
same,"Behavior of gene caused by administration of chemical substance, Gene No. 1119",[1],−
same,"Behavior of gene caused by administration of chemical substance, Gene No. 6742",[1],−
same,"Behavior of gene caused by administration of chemical substance, Gene No. 5634",[1],−
same,"Behavior of gene caused by administration of chemical substance, Gene No. 5726",[1],+

# From US20110039721A1, “METHOD FOR PREDICTION ABOUT CARCINOGENICITY OF SUBSTANCE IN RODENT” (Chemicals Evaluation and Research Institute, priority 2007, published 2011)
